Measured values reported in patent publication US10927096B2, “Ester substituted ion channel blockers and methods for use” (Nocion Therapeutics, Inc., priority 2019, dated 2021).

Molecular target: T1, NaV1.7 (Homo sapiens, UniProt Q15858)
T1 construct: expressed in transfected cells; host or cells: HEK293, tetracycline-inducible
Test: Whole cell patch clamp, internal block of NaV1.7 current
Assay type: cell-based
Settings: % inhibition at 1 μM test concentration, compound in internal solution, manual whole cell patch clamp
Procedure: NaV1.7 was expressed upon induction with tetracycline. Cells were cultured in DMEM containing 10% dialyzed Fetal Bovine Serum (VWR, Radnor, Pa.), 1% Glutamax (VWR, Radnor, Pa.), 1% Penicillin-Streptomycin (VWR, Radnor, Pa.), 100 mg/L Hygromycin (Thermo Fisher Scientific, Waltham, Mass. and 5 mg/L Blasticidin (Alfa Aesar, Haverhill, Mass.). Cells were grown and maintained at 37° C. in a humidified environment containing 10% C02 in air. Cells were detached from the culture flask for passage and harvested using 0.05% Trypsin-EDTA (Thermo Fisher Scientific, Waltham, Mass.). To induce NaV1.7, cells were induced with tetracycline (0.1-1 μg/mL, IBI Scientific, Peosta, Iowa) the day before recording and plated onto 24-well plates. Cells were washed with DPBS (VWR, Radnor, Pa.), trypsinized and then triturated five times in 10 mL of growth media to break apart cell aggregates. For one 24-well plate, 2 mL of cell suspension was mixed with 23 mL of fresh growth media and 0.1-1 μg/mL tetracycline added. 1 ml of mixed media with cells was then added to each well of a 24-well plate, with a 12 mm coverslip already placed in the bottom of the well. Cells were then incubated in 37° C. and 10% CO2 overnight.
The intracellular solution contained the following (in mM) CsCl 135, NaCl 10, EGTA 10, HEPES 10, MgCl2 2, adjusted to pH 7.2 with CsOH. The external solution was a normal Ringer solution containing (in mM) NaCl 155, HEPES 10, glucose 10, KCl 3.5, CaCl2 1.5, MgCl2 1 adjusted to pH 7.4 with NaOH. CsCl is from Alfa Aesar, Haverhill, Mass. All other chemicals are from Sigma-Aldrich, St. Louis, Mo. In order to test the degree of internal block by test compounds the compounds were dissolved in internal solution at the indicated test concentration. […] In order to test the degree of external block by test compounds the compounds were dissolved in external solution at the indicated test concentration.
18-24 hours after cells were induced with tetracycline, coverslips were placed into a chamber filled with Normal Ringer solution at room temperature and the chamber placed on a microscope. Pipettes were pulled from borosilicate glass on a P97 puller (Sutter Instrument, Novato, Calif.) and polished with a MF-830 Microforge (Narishige International USA, Inc, Amityville, N.Y.) to have a resistance of 1.5-2.5 MΩ when filled with CsCl internal solution at room temperature. Healthy cells (those that are round and translucent with no visible blemishes) were chosen for seal formation. A seal was formed between the pipette and the cell, and a brief pulse of suction was used to “break in” and establish the whole-cell configuration. The membrane potential was held at −100 mV before the voltage protocol began. Only cells with series resistance between 1.5-5 MΩ were retained for analysis. The voltage protocol was as follows: Cells were held at −100 mV for 12 ms followed by a hyperpolarizing step to −105 mV for 12 ms to monitor the leak. Cells were then stepped back to −100 mV for 40 ms. Cells were then depolarized to −20 mV for 10 ms and then returned to −100 mV for 26 ms (The FIGURE).
Once the recording was started, the voltage protocol was run at 30 second intervals for 5 minutes to get a stable baseline. This was followed by four 30-second periods of 5 Hz stimulation of the same voltage protocol separated by 1 minute of rest which was then followed by 0.33 Hz stimulation after the last train. Currents were recorded using PatchMaster software with Heka EPC10 (HEKA Electronics, Lambrecht, Germany). Only cells with inward current amplitudes at −20 mV between 400 pA and 4 nA were accepted. In addition, cells having leak currents greater than 10% of their current amplitudes were discarded.
The data was plotted using the Patchmaster software (HEKA Electronics, Lambrecht, Germany) and analyzed by plotting the minimum current during the voltage step to −20 mV (peak inward current) as a function of time. […]

T1 sequence (Q15858 whole entry): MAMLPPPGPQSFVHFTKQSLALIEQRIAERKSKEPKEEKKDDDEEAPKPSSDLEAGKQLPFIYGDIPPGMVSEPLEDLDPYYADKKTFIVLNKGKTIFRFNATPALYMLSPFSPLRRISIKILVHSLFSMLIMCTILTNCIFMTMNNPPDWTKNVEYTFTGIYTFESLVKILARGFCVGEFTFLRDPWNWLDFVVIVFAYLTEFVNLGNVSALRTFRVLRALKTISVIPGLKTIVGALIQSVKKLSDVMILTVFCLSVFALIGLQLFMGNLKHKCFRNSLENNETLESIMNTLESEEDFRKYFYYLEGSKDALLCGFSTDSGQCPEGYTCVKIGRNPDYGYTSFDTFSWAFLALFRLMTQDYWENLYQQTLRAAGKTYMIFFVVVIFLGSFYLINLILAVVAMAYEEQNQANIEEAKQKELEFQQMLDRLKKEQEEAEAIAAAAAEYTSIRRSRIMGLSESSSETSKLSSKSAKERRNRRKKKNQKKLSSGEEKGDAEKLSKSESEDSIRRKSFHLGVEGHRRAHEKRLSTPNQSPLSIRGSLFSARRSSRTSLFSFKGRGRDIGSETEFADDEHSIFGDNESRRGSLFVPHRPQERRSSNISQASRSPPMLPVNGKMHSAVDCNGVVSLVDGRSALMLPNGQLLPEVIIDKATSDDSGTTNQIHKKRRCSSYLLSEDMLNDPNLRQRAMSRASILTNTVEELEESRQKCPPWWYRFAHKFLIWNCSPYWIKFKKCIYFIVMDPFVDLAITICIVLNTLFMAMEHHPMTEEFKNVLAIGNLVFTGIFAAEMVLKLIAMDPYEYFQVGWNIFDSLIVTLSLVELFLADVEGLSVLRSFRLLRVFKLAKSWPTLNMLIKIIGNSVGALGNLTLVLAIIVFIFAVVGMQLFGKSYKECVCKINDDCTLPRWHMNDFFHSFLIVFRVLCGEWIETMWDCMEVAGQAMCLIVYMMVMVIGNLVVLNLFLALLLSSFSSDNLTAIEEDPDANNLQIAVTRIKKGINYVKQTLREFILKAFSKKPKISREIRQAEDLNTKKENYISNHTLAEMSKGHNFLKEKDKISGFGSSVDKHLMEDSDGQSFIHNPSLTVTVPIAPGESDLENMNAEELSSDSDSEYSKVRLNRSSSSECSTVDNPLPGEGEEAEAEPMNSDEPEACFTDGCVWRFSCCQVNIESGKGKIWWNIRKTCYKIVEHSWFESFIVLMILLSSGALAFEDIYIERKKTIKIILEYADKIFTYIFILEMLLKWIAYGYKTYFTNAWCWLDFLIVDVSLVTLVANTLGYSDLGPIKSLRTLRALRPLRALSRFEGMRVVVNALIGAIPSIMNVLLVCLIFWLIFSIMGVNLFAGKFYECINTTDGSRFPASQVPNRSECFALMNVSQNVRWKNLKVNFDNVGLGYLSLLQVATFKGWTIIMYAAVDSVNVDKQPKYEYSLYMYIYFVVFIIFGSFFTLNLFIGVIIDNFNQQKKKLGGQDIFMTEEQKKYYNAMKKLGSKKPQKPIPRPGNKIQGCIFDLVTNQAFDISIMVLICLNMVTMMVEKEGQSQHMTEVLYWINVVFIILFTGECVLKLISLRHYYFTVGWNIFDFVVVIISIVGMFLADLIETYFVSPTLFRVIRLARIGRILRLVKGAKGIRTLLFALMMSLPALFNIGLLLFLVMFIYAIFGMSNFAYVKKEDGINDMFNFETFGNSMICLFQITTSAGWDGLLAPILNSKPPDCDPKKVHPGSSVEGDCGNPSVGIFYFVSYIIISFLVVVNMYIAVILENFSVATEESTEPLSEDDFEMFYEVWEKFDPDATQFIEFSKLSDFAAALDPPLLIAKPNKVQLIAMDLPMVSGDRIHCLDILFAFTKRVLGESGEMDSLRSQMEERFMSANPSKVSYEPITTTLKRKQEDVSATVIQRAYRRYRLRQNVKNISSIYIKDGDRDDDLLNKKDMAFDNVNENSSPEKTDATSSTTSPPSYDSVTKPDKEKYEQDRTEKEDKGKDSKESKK

SMILES | NaV1.7 Intracellular Inhibition | inhibition at 1 µM (read-out: NaV1.7 Intracellular Inhibition)
CCCCOC(=O)C1CCC[N+](CC(=O)Nc2c(C)cccc2C(=O)OC)(Cc2ccccc2)C1.[Br-] (mixture of isomers) [Compound 14] | ++ (70-30%) | 
CCCCOC(=O)C1CCC[N+](CC)(CC(=O)Nc2c(C)cccc2C(=O)OC)C1.[I-] (mixture of isomers) [Compound 15] | ++ (70-30%) | 
CCOC(=O)C1CCC[N+](CC(=O)Nc2c(C)cccc2C(=O)OC)(Cc2ccccc2)C1 (mixture of isomers) [Compound 16] | +++ (90-70%) | 
CC[N+]1(CC(=O)Nc2c(C)cccc2C(=O)OC)CCCC(C(=O)OC2CCCCC2)C1 (mixture of isomers) [Compound 27] | ++ (70-30%) | 
CCCNC(=O)C1CCC[N+](CC(=O)Nc2c(C)cccc2C(=O)OC)(Cc2ccccc2)C1 (mixture of isomers) [Compound 28] | ++ (70-30%) | 
CNC(=O)C1CCC[N+](CC(=O)Nc2c(C)cccc2C(=O)OC)(Cc2ccccc2)C1 (mixture of isomers) [Compound 31] | ++ (70-30%) | 
COC(=O)c1cccc(C)c1NC(=O)C[N+]1(Cc2ccccc2)CCCC(C(=O)N(C)C)C1 (mixture of isomers) [Compound 40] | ++ (70-30%) | 
COC(=O)c1cccc(C)c1NC(=O)C[N+]1(Cc2ccccc2)CCCC(C(=O)N2CCCC2)C1 (mixture of isomers) [Compound 43] | ++ (70-30%) | 
CC[N+]1(CC(=O)Nc2c(C)cccc2C(=O)OC)CCCC(C(=O)N2CCCC2)C1 (mixture of isomers) [Compound 54] | ++ (70-30%) | 
CNC(=O)C[N+]1(CC(=O)Nc2c(C)cccc2C(=O)OC)CCCC(c2ccccc2)C1.[Br-] (mixture of isomers) [Compound 59] | +++ (90-70%) | 
COC(=O)c1cccc(C)c1NC(=O)C[N+]1(CC(N)=O)CCCC(c2ccccc2)C1 (mixture of isomers) [Compound 61] | +++ (90-70%) | 
CCN(CC)C(=O)C[N+]1(CC(=O)Nc2c(C)cccc2C(=O)OC)CCCC(c2ccccc2)C1 (mixture of isomers) [Compound 62] | ++ (70-30%) | 
COC(=O)C[N+]1(CC(=O)Nc2c(C)cccc2C(=O)OC)CCCC(c2ccccc2)C1 (mixture of isomers) [Compound 64] | ++ (70-30%) | 
CC[N+]1(CC(=O)Nc2c(C)cccc2C(=O)OC)CCCC(c2ccccc2)C1 (mixture of isomers) [Compound 65] | ++++ (>90%) | 
COC(=O)c1cccc(C)c1NC(=O)C[N+]1(Cc2ccccc2)CCCCCC1 [Compound 1] | ++++ (>90%) | 
CCOC(=O)c1cccc(C)c1NC(=O)C[N+]1(Cc2ccccc2)CCCCCC1 [Compound 2] | ++++ (>90%) | 
COC(=O)c1cccc(C)c1NC(=O)C[N+]1(Cc2ccccc2)CCCCC1.[Br-] [Compound 3] | ++ (70-30%) | 
CCOC(=O)c1cccc(C)c1NC(=O)C[N+]1(Cc2ccccc2)CCCCC1.[Br-] [Compound 4] | +++ (90-70%) | 
COC(=O)c1cccc(C)c1NC(=O)C[N+]1(Cc2ccccc2)CCCC1 [Compound 5] | ++ (70-30%) | 
CCCOC(=O)c1cccc(C)c1NC(=O)C[N+]1(Cc2ccccc2)CCCCCC1.[Br-] [Compound 6] | +++ (90-70%) | 
Cc1cccc(C(=O)OC(C)C)c1NC(=O)C[N+]1(Cc2ccccc2)CCCCCC1.[Br-] [Compound 7] | ++++ (>90%) | 

SMILES | NaV1.7 Intracellular Inhibition | inhibition at 1 µM (read-out: NaV1.7 Intracellular Inhibition)
CCOC(=O)c1cccc(C)c1NC(=O)C[N+]1(Cc2ccccc2)CCCC1.[Br-] [Compound 9] | +++ (90-70%) | 
CC[N+]1(CC(=O)Nc2c(C)cccc2C(=O)OC)CCCC(C(=O)OCC(C)C)C1.[I-] (stereo not drawn) [Compound 23] | +++ (90-70%) | 
CCCOC(=O)C1CCC[N+](CC)(CC(=O)Nc2c(C)cccc2C(=O)OC)C1.[I-] (stereo not drawn) [Compound 26] | ++ (70-30%) | 
COC(=O)c1cccc(C)c1NC(=O)C[N+]1(Cc2ccccc2)CCCC(C(N)=O)C1.[Br-] (stereo not drawn) [Compound 30] | ++ (70-30%) | 
COC(=O)c1cccc(C)c1NC(=O)C[N+]1(Cc2ccccc2)CCCC(C(=O)NC(C)C)C1.[Br-] (stereo not drawn) [Compound 32] | ++ (70-30%) | 
CCNC(=O)C1CCC[N+](CC(=O)Nc2c(C)cccc2C(=O)OC)(Cc2ccccc2)C1.O=C([O-])C(F)(F)F (stereo not drawn) [Compound 33] | ++ (70-30%) | 
COC(=O)c1cccc(C)c1NC(=O)C[N+]1(Cc2ccccc2)CCCC(C(=O)N2CCCCCC2)C1.[Br-] (stereo not drawn) [Compound 34] | ++ (70-30%) | 
COC(=O)c1cccc(C)c1NC(=O)C[N+]1(Cc2ccccc2)CCCC(C(=O)NCC(C)C)C1.[Br-] (stereo not drawn) [Compound 36] | ++ (70-30%) | 
COC(=O)c1cccc(C)c1NC(=O)C[N+]1(Cc2ccccc2)CCCC(C(=O)NC2CCCC2)C1.[Br-] (stereo not drawn) [Compound 41] | + (<30%) | 
CC[N+]1(CC(=O)Nc2c(C)cccc2C(=O)OC)CCCC(C(=O)N2CCCCC2)C1.[I-] (stereo not drawn) [Compound 45] | ++ (70-30%) | 
CC[N+]1(CC(=O)Nc2c(C)cccc2C(=O)OC)CCCC(C(=O)NC)C1.[I-] (stereo not drawn) [Compound 46] | + (<30%) | 
CC[N+]1(CC(=O)Nc2c(C)cccc2C(=O)OC)CCCC(C(N)=O)C1.[I-] (stereo not drawn) [Compound 55] | +++ (90-70%) | 
CC[N+]1(CC(=O)Nc2c(C)cccc2C(=O)OC)CCCC(C(=O)NC2CCCCC2)C1.[I-] (stereo not drawn) [Compound 56] | ++ (70-30%) | 
CCC(C(=O)Nc1c(C)cccc1C(=O)OC)[N+]1(Cc2ccccc2)CCCCC1 (stereo not drawn) [Compound 57] |  | 30 to 70%
CCc1cccc(C[N+]2(C(CC)C(=O)Nc3c(C)cccc3C(=O)OC)CCCCC2)c1.O=C[O-] (stereo not drawn) [Compound 58] | +++ (90-70%) | 
COC(=O)c1cccc(C)c1NC(=O)C[N+]1(CC(=O)N(C)C)CCCC(c2ccccc2)C1.O=C([O-])C(F)(F)F (stereo not drawn) [Compound 60] | ++ (70-30%) | 
CCOC(=O)C[N+]1(CC(=O)Nc2c(C)cccc2C(=O)OC)CCCC(c2ccccc2)C1.O=C([O-])C(F)(F)F (stereo not drawn) [Compound 63] | +++ (90-70%) | 
COC(=O)c1cccc(C)c1NC(=O)C[n+]1cccc(-c2ccccc2)c1.[Br-] [Compound 66] | +++ (90-70%) | 
CCOC(=O)c1cccc(C)c1NC(=O)C[n+]1cccc(-c2ccccc2)c1 [Compound 67] | +++ (90-70%) | 
COC(=O)c1cccc(C)c1NC(=O)C[n+]1cccn1C1CCCCC1.[Br-] [Compound 69] | ++ (70-30%) | 
Cc1cccc(C(=O)OC(C)(C)C)c1NC(=O)C[n+]1cccc(-c2ccccc2)c1.[Br-] [Compound 71] | ++ (70-30%) | 
